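Each compound was tested at five concentrations against cells in 96-well plates for 48 hours. The concentration for 50% growth inhibition is given as GI50. TGI denotes the concentration required for complete inhibition of growth.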
Experiments:
Assay in all cases: inhibition of tumour cell growth, NCI panel, 48 h
786-0 renal = tested on: 786-0 renal
A498 renal = tested on: A498 renal
A549 NSCLC = tested on: A549 NSCLC
ACHN renal = tested on: ACHN renal
BT-549 breast = tested on: BT-549 breast
CAKI-1 renal = tested on: CAKI-1 renal
COLO 205 colon = tested on: COLO 205 colon
DU-145 prostate = tested on: DU-145 prostate
EKVX NSCLC = tested on: EKVX NSCLC
HCC-2998 colon = tested on: HCC-2998 colon
HCT-116 colon = tested on: HCT-116 colon
HCT-15 colon = tested on: HCT-15 colon
HOP-62 NSCLC = tested on: HOP-62 NSCLC
HOP-92 NSCLC = tested on: HOP-92 NSCLC
HS 578T breast = tested on: HS 578T breast
HT29 colon = tested on: HT29 colon
IGROV1 ovarian = tested on: IGROV1 ovarian
K-562 leukemia = tested on: K-562 leukemia
KM12 colon = tested on: KM12 colon
LOX IMVI melanoma = tested on: LOX IMVI melanoma
M14 melanoma = tested on: M14 melanoma
MALME-3M melanoma = tested on: MALME-3M melanoma
MCF7 breast = tested on: MCF7 breast
MDA-MB-231 breast = tested on: MDA-MB-231 breast
MDA-MB-435 = tested on: MDA-MB-435
MOLT-4 leukemia = tested on: MOLT-4 leukemia
NCI-H226 lung = tested on: NCI-H226 lung
NCI-H23 lung = tested on: NCI-H23 lung
NCI-H460 lung = tested on: NCI-H460 lung
NCI-H522 lung = tested on: NCI-H522 lung
NCI/ADR-RES ovarian = tested on: NCI/ADR-RES ovarian
OVCAR-3 ovarian = tested on: OVCAR-3 ovarian
OVCAR-4 ovarian = tested on: OVCAR-4 ovarian
OVCAR-5 ovarian = tested on: OVCAR-5 ovarian
OVCAR-8 ovarian = tested on: OVCAR-8 ovarian
PC-3 prostate = tested on: PC-3 prostate
RPMI-8226 leukemia = tested on: RPMI-8226 leukemia
RXF 393 renal = tested on: RXF 393 renal
SF-268 CNS = tested on: SF-268 CNS
SF-295 CNS = tested on: SF-295 CNS
SF-539 CNS = tested on: SF-539 CNS
SK-MEL-2 melanoma = tested on: SK-MEL-2 melanoma
SK-MEL-28 melanoma = tested on: SK-MEL-28 melanoma
SK-MEL-5 melanoma = tested on: SK-MEL-5 melanoma
SK-OV-3 ovarian = tested on: SK-OV-3 ovarian
SN12C renal = tested on: SN12C renal
SNB-19 CNS = tested on: SNB-19 CNS
SNB-75 CNS = tested on: SNB-75 CNS
SW-620 colon = tested on: SW-620 colon
T-47D breast = tested on: T-47D breast
TK-10 renal = tested on: TK-10 renal
U251 CNS = tested on: U251 CNS
UACC-257 melanoma = tested on: UACC-257 melanoma
UACC-62 melanoma = tested on: UACC-62 melanoma
UO-31 renal = tested on: UO-31 renal

CCN(CC)CCOc1ccc(/C=C2\CC3C4CCC5=CC(=O)CC[C@]5(C)C4CC[C@]3(C)C2=O)cc1OC (some centres undefined)
GI50 (786-0 renal): 2180 nM
TGI (786-0 renal): 4.61 µM
GI50 (A498 renal): 1990 nM
TGI (A498 renal): 8.48 µM
GI50 (A549 NSCLC): 4.54 µM
TGI (A549 NSCLC): 58.3 µM
GI50 (ACHN renal): 3.05 µM
GI50 (BT-549 breast): 5.02 µM
TGI (BT-549 breast): 19.7 µM
GI50 (CAKI-1 renal): 2660 nM
TGI (CAKI-1 renal): 6.54 µM
GI50 (COLO 205 colon): 1750 nM
TGI (COLO 205 colon): 4.61 µM
GI50 (DU-145 prostate): 3.26 µM
TGI (DU-145 prostate): 16.4 µM
GI50 (EKVX NSCLC): 4.88 µM
TGI (EKVX NSCLC): 19.5 µM
GI50 (HCC-2998 colon): 2180 nM
TGI (HCC-2998 colon): 5.18 µM
GI50 (HCT-116 colon): 1850 nM
TGI (HCT-116 colon): 4.45 µM
GI50 (HCT-15 colon): 2820 nM
TGI (HCT-15 colon): 10.5 µM
GI50 (HOP-62 NSCLC): 2500 nM
TGI (HOP-62 NSCLC): 6.37 µM
GI50 (HOP-92 NSCLC): 3.14 µM
TGI (HOP-92 NSCLC): 7.51 µM
GI50 (HS 578T breast): 2450 nM
TGI (HS 578T breast): 17.3 µM
GI50 (HT29 colon): 1300 nM
TGI (HT29 colon): > 100 µM
GI50 (IGROV1 ovarian): 22.7 µM
TGI (IGROV1 ovarian): > 100 µM
GI50 (K-562 leukemia): 3.14 µM
TGI (K-562 leukemia): > 100 µM
GI50 (KM12 colon): 1930 nM
TGI (KM12 colon): 3.85 µM
GI50 (LOX IMVI melanoma): 1890 nM
TGI (LOX IMVI melanoma): 4.43 µM
GI50 (M14 melanoma): 2080 nM
TGI (M14 melanoma): 3.96 µM
GI50 (MALME-3M melanoma): 1500 nM
TGI (MALME-3M melanoma): 2950 nM
GI50 (MCF7 breast): 3.02 µM
TGI (MCF7 breast): 13.7 µM
GI50 (MDA-MB-231 breast): 2550 nM
TGI (MDA-MB-231 breast): 6.17 µM
GI50 (MDA-MB-435): 1870 nM
TGI (MDA-MB-435): 4 µM
GI50 (MOLT-4 leukemia): 5.78 µM
TGI (MOLT-4 leukemia): > 100 µM
GI50 (NCI-H226 lung): 2030 nM
TGI (NCI-H226 lung): 6.51 µM
GI50 (NCI-H23 lung): 3.17 µM
TGI (NCI-H23 lung): 11 µM
GI50 (NCI-H460 lung): 2850 nM
TGI (NCI-H460 lung): 11.2 µM
GI50 (NCI-H522 lung): 7.15 µM
TGI (NCI-H522 lung): > 100 µM
GI50 (NCI/ADR-RES ovarian): 3.22 µM
TGI (NCI/ADR-RES ovarian): 13 µM
GI50 (OVCAR-3 ovarian): 2370 nM
TGI (OVCAR-3 ovarian): 5.07 µM
GI50 (OVCAR-4 ovarian): 10.6 µM
TGI (OVCAR-4 ovarian): > 100 µM
GI50 (OVCAR-5 ovarian): 3.6 µM
TGI (OVCAR-5 ovarian): 17.4 µM
GI50 (OVCAR-8 ovarian): 4.09 µM
TGI (OVCAR-8 ovarian): 18.2 µM
GI50 (PC-3 prostate): 2920 nM
TGI (PC-3 prostate): 13.9 µM
GI50 (RPMI-8226 leukemia): 1790 nM
TGI (RPMI-8226 leukemia): 5.03 µM
GI50 (RXF 393 renal): 1850 nM
TGI (RXF 393 renal): 4.56 µM
GI50 (SF-268 CNS): 2340 nM
TGI (SF-268 CNS): 5.62 µM
GI50 (SF-295 CNS): 2010 nM
TGI (SF-295 CNS): 4.06 µM
GI50 (SF-539 CNS): 2060 nM
TGI (SF-539 CNS): 6.13 µM
GI50 (SK-MEL-2 melanoma): 9.01 µM
TGI (SK-MEL-2 melanoma): > 100 µM
GI50 (SK-MEL-28 melanoma): 2290 nM
TGI (SK-MEL-28 melanoma): 5.67 µM
GI50 (SK-MEL-5 melanoma): 1630 nM
TGI (SK-MEL-5 melanoma): 3.28 µM
GI50 (SK-OV-3 ovarian): 2660 nM
TGI (SK-OV-3 ovarian): 8.46 µM
GI50 (SN12C renal): 2600 nM
TGI (SN12C renal): 7.06 µM
GI50 (SNB-19 CNS): 4.03 µM
TGI (SNB-19 CNS): 22.7 µM
GI50 (SNB-75 CNS): 3.02 µM
TGI (SNB-75 CNS): 7.78 µM
GI50 (SW-620 colon): 2980 nM
TGI (SW-620 colon): 13.4 µM
GI50 (T-47D breast): 3.14 µM
TGI (T-47D breast): 17.1 µM
GI50 (TK-10 renal): 2450 nM
TGI (TK-10 renal): 5.59 µM
GI50 (U251 CNS): 2570 nM
TGI (U251 CNS): 8.39 µM
GI50 (UACC-257 melanoma): 3.43 µM
TGI (UACC-257 melanoma): 11.1 µM
GI50 (UACC-62 melanoma): 2010 nM
TGI (UACC-62 melanoma): 4.13 µM
GI50 (UO-31 renal): 701 nM
TGI (UO-31 renal): > 100 µM
